For assay [1], the target named is T1, STAT3 (Homo sapiens, UniProt P40763).
T1 construct: Recombinant STAT3 protein (STAT3(G127-I722))
The assay can be described thus: STAT3 Fluorescence Polarization (FP) Assay. Format: binding. On the procedure: An FP assay was developed to determine IC50 values for test substances.
Recombinant STAT3 protein (STAT3(G127-I722)) at 25 nM was combined with a fluorescently labeled, phosphotyrosine peptide probe (5-FAM-GpYLPQTV-NH2) at 2 nM in FP buffer (10 mM HEPES pH 7.4, 50 mM NaCl, 1 mM EDTA, 0.05% Tween 20, 2 mM DTT). 50 μL of STAT3-probe mixture was added to serial diluted compounds in black, 96-well plates (Greiner BioOne 655076) to a final concentration of 1% DMSO. Reaction components were mixed, and FP was measured after 45-minute incubation at room temperature using a Tecan Spark multimode plate reader. FP signal (mP) was plotted against the log concentration of the test substances and IC50 values were calculated by nonlinear regression analysis using GraphPad Prism software. For STAT3 FP assay, A=≤100 nM; B=>100-1000 nM; C=>1-10 μM; and D=>10 μM.
A general note: Fluorescence polarisation rises when a labelled molecule tumbles more slowly, as on binding a larger partner.

Assay [2] concerns the target pSTAT3 (Homo sapiens, UniProt P40763). The assay can be described thus: MSD-pSTAT-PBMC Assay (pSTAT3, IL-6 stimulated). Format: cell-based. The source says:
Cryopreserved Peripheral Blood Mononuclear Cells (PBMC) are from AllCells. Recombinant Human IL-4 and IL-6 are from Peprotech. Mouse monoclonal anti-STAT3 antibody, rabbit monoclonal anti-pY705-STAT3 antibody, rabbit monoclonal Anti-pY641-STAT6 antibody, and lysis buffer are from Cell Signaling Technology (CST). Mouse monoclonal anti-STAT6 antibody is from BioLegend. Assay plates, blocker, and anti-rabbit secondary antibody are from Meso Scale Discovery (MSD).
Cryopreserved PBMCs were thawed out and allowed to recover overnight in IMDM+10% heat-inactivated FBS prior to plating 50,000 (STAT3) or 25,000 (STAT6) cells per well in 96-well U-bottom tissue culture plates. Cells were treated with compound for 3 hrs, then stimulated with 10 ng/mL IL-6 (STAT3) or 1 ng/mL IL-4 (STAT6) for 10 min. Cells were then spun down and washed with ice-cold PBS prior to lysing the cell pellet with 1× lysis buffer (CST) with 1× HALT protease and phosphatase inhibitor cocktail (Thermo). Lysates were transferred to and incubated overnight at 4° C. with shaking in QuickPlex 96-well high bind assay plates (MSD) pre-coated overnight with 30 μL per well of […] mouse monoclonal anti-STAT3 antibody (STAT3) or 2 μg/mL mouse monoclonal anti-STAT6 antibody (STAT6) in 1× PBS, and pre-blocked for 1 hour with 3% Blocker-A (MSD). Captured protein in the assay plates were then washed and probed with 25 μL per well of […] rabbit monoclonal anti-pY705-STAT3 antibody (STAT3) or […] rabbit monoclonal Anti-pY641-STAT6 antibody (STAT6) in 1% Blocker-A for 1 hour at room temperature with shaking, then washed and probed with 25 ul per well of 1 ug/ml Sulfo-TAG Labeled Goat Anti-Rabbit Antibody (MSD) in 1% Blocker-A for 1 hour at room temperature with shaking. Assay plates were then washed and 150 μL of 1× Read Buffer-T (MSD) was added to each well prior to reading on an SQ120 MSD Plate Reader. Assay signal from each sample was subtracted by the signal from unstimulated control wells and normalized to DMSO control wells. IC50 values were calculated using Graph Pad Prism Dose-Response Nonlinear Regression with variable slope. For both pSTAT3 and pSTAT6 A=≤100 nM; B=>100-1000 nM; C=>1000-3000 nM; and D=>3 μM.

Assay [3] addresses T2, STAT6 (Homo sapiens, UniProt P42226).
T2 construct: Recombinant STAT6 protein (STAT6(W123-T658))
T2 sequence (P42226 123-658): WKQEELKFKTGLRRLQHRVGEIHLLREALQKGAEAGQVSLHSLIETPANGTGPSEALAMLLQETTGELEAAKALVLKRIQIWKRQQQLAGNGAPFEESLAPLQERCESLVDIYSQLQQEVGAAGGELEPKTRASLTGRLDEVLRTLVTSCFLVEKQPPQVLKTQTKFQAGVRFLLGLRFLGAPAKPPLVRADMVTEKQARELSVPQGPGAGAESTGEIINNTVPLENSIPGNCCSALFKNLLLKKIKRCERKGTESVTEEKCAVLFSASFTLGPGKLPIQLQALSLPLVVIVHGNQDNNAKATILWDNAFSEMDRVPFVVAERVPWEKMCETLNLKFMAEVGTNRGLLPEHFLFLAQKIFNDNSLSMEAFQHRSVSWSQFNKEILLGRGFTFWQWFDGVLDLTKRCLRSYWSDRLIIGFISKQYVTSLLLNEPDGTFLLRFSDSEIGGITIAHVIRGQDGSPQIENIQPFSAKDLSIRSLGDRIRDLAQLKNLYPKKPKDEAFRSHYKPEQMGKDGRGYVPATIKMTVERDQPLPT
The assay can be described thus: STAT6 Fluorescence Polarization (FP) Assay. The assay is classed as binding. On the procedure:
An FP assay was developed to determine IC50 values for test substances. Recombinant STAT6 protein (STAT6(W123-T658)) at 250 nM was combined with a fluorescently labeled, phosphotyrosine peptide probe (5-FAM-ApYKPFQDLI-NH2) at 2 nM in FP buffer (10 mM HEPES pH 7.4, 50 mM NaCl, 1 mM EDTA, 0.05% Tween 20, 2 mM DTT). 50 μL of STAT6-probe mixture was added to serial diluted compounds in black, 96-well plates (Greiner BioOne 655076) to a final concentration of 1% DMSO. Reaction components were mixed, and FP was measured after 45-minute incubation at room temperature using a Tecan Spark multimode plate reader. FP signal (mP) was plotted against the log concentration of the test substances and IC50 values were calculated by nonlinear regression analysis using GraphPad Prism software. For STAT6 FP assay, A=≤300 nM; B=>300-3000 nM; C=>3-30 μM; and D=>30 μM.

Where [4] appears, read: compound 3 hrs, then 10 ng/mL IL-6 10 min, pY705-STAT3, read-out: pSTAT3 IC50.
The mark [5] stands for this setting: read-out: pSTAT3 IC50, compound 3 hrs, then 10 ng/mL IL-6 10 min, pY705-STAT3.

Read-outs that look alike come from different tables or passages of the source.

The source of these data is US20260306642A1, “STAT DEGRADERS AND USES THEREOF” (Recludix Pharma, Inc., priority 2023, published 2026).

Sequence of pSTAT3 (P40763 whole entry): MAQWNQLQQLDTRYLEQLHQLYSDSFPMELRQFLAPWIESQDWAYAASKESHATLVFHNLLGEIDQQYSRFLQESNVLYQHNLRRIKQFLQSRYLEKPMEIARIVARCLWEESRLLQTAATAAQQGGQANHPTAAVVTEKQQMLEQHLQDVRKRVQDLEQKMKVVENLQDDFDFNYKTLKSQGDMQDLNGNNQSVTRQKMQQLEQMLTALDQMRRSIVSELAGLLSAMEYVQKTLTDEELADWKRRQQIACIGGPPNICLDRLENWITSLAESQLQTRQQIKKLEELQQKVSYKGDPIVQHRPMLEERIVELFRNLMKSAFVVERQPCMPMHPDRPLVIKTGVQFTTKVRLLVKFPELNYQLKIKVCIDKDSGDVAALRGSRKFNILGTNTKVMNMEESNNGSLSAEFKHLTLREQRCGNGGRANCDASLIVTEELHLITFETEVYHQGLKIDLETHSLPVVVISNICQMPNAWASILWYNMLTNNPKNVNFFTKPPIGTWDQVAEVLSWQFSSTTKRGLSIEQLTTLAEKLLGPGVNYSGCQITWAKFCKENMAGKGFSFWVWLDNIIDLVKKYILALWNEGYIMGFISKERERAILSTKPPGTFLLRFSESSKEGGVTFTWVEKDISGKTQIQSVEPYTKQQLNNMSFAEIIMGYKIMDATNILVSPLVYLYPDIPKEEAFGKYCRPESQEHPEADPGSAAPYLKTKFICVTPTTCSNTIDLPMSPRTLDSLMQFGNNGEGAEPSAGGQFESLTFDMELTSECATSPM
T1 sequence (P40763 127-722): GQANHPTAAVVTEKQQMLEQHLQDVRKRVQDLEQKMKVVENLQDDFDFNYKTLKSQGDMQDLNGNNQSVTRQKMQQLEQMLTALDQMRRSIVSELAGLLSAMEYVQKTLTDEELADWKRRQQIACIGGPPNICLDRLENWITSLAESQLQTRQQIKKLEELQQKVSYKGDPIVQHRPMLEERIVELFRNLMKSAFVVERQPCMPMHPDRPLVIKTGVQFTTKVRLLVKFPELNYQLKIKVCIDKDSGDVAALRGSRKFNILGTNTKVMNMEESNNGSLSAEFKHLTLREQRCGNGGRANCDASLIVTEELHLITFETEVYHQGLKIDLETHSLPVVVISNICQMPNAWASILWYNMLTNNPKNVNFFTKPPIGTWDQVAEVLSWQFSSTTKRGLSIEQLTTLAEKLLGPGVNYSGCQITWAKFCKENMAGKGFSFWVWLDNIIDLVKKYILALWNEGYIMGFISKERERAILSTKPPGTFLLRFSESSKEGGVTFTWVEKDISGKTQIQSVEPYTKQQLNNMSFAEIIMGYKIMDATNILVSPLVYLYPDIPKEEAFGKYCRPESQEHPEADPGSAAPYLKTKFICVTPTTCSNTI

With `Cc1ncsc1-c1ccc(CNC(=O)[C@@H]2C[C@@H](O)CN2C(=O)[C@@H](NCCCCOc2ccncc2C2CN(C(=O)[C@@H]3CC[C@@H]4CCC[C@H](NC(=O)c5cc6cc(C(F)(F)P(=O)(O)O)ccc6s5)C(=O)N43)C2)C(C)(C)C)cc1` [Compound 2, (difluoro(2-(((3S,6S,9aS)-3-(3-(4-(4-(((S)-1-((2S,4R)-4-hydroxy-2-((4-(4-methylthiazol-5-yl)benzyl)carbamoyl)pyrrolidin-1-yl)-3,3-dimethyl-1-oxobutan-2-yl)amino)butoxy)pyridin-3-yl)azetidine-1-carbonyl)-5-oxooctahydro-1H-pyrrolo[1,2-a]azepin-6-yl)carbamoyl)benzo[b]thiophen-5-yl)methyl)phosphonic acid], the values for the IC50 in assay [1], in assay [2] (setting [4]) and in assay [3] were under 0.1 µM, over 3 µM and 3 to 30 µM, respectively.

As for `Cc1ncsc1-c1ccc(CNC(=O)[C@@H]2C[C@@H](O)CN2C(=O)[C@@H](NC(=O)C2CCN(c3ccncc3C3CN(C(=O)[C@@H]4CC[C@@H]5CCC[C@H](NC(=O)c6cc7cc(C(F)(F)P(=O)(O)O)ccc7s6)C(=O)N54)C3)CC2)C(C)(C)C)cc1` [Compound 8, (difluoro(2-(((3S,6S,9aS)-3-(3-(4-(4-(((S)-1-((2S,4R)-4-hydroxy-2-((4-(4-methylthiazol-5-yl)benzyl)carbamoyl)pyrrolidin-1-yl)-3,3-dimethyl-1-oxobutan-2-yl)carbamoyl)piperidin-1-yl)pyridin-3-yl)azetidine-1-carbonyl)-5-oxooctahydro-1H-pyrrolo[1,2-a]azepin-6-yl)carbamoyl)benzo[b]thiophen-5-yl)methyl)phosphonic acid], the IC50 is under 0.1 µM in assay [1], 1 to 3 µM in assay [2] (setting [4]) and 0.3 to 3 µM in assay [3].

With `O=C1CCC(c2ccc(OCCOc3ccncc3C3CN(C(=O)[C@@H]4CC[C@@H]5CCC[C@H](NC(=O)c6cc7cc(C(F)(F)P(=O)(O)O)ccc7s6)C(=O)N54)C3)cc2)C(=O)N1` (stereo partly drawn) [Compound 9, ((2-(((3S,6S,9aS)-3-(3-(4-(2-(4-(2,6-dioxopiperidin-3-yl)phenoxy)ethoxy)pyridin-3-yl)azetidine-1-carbonyl)-5-oxooctahydro-1H-pyrrolo[1,2-a]azepin-6-yl)carbamoyl)benzo[b]thiophen-5-yl)difluoromethyl)phosphonic acid], the figures for the IC50 in assay [1], in assay [2] (setting [4]) and in assay [3] were under 0.1 µM, over 3 µM and 3 to 30 µM, respectively.

As for `O=C1CCC(c2ccc(OCCOCCOc3ccncc3C3CN(C(=O)[C@@H]4CC[C@@H]5CCC[C@H](NC(=O)c6cc7cc(C(F)(F)P(=O)(O)O)ccc7s6)C(=O)N54)C3)cc2)C(=O)N1` (stereo partly drawn) [Compound 11, ((2-(((3S,6S,9aS)-3-(3-(4-(2-(2-(4-(2,6-dioxopiperidin-3-yl)phenoxy)ethoxy)ethoxy)pyridin-3-yl)azetidine-1-carbonyl)-5-oxooctahydro-1H-pyrrolo[1,2-a]azepin-6-yl)carbamoyl)benzo[b]thiophen-5-yl)difluoromethyl)phosphonic acid], the IC50 in assay [1] was under 0.1 µM; in assay [2] (setting [4]), over 3 µM; in assay [3], 3 to 30 µM.

Consider `CN(CCOc1ccc(C2CCC(=O)NC2=O)cc1)c1ccncc1C1CN(C(=O)[C@@H]2CC[C@@H]3CCC[C@H](NC(=O)c4cc5cc(C(F)(F)P(=O)(O)O)ccc5s4)C(=O)N32)C1` (stereo partly drawn) [Compound 21, ((2-(((3S,6S,9aS)-3-(3-(4-((2-(4-(2,6-dioxopiperidin-3-yl)phenoxy)ethyl)(methyl)amino)pyridin-3-yl)azetidine-1-carbonyl)-5-oxooctahydro-1H-pyrrolo[1,2-a]azepin-6-yl)carbamoyl)benzo[b]thiophen-5-yl)difluoromethyl)phosphonic acid], for which the IC50 in assay [1] was under 0.1 µM; in assay [2] (setting [4]) it was over 3 µM; in assay [3], 3 to 30 µM.

As to `O=C1CCC(c2ccc(OCC(=O)N3CCN(c4ccncc4C4CN(C(=O)[C@@H]5CC[C@@H]6CCC[C@H](NC(=O)c7cc8cc(C(F)(F)P(=O)(O)O)ccc8s7)C(=O)N65)C4)CC3)cc2)C(=O)N1` (stereo partly drawn) [Compound 28, ((2-(((3S,6S,9aS)-3-(3-(4-(4-(2-(4-(2,6-dioxopiperidin-3-yl)phenoxy)acetyl)piperazin-1-yl)pyridin-3-yl)azetidine-1-carbonyl)-5-oxooctahydro-1H-pyrrolo[1,2-a]azepin-6-yl)carbamoyl)benzo[b]thiophen-5-yl)difluoromethyl)phosphonic acid], the values for the IC50 in assay [1], in assay [2] (setting [4]) and in assay [3] were under 0.1 µM, over 3 µM and 3 to 30 µM, respectively.

In the case of `O=C(COc1cccc2c1C(=O)N(C1CCC(=O)NC1=O)C2=O)NCCOCCOCCC(=O)NC1(c2ccccn2)CN(C(=O)[C@@H]2CC[C@H]3CCCC[C@H](NC(=O)c4cc5cc(C(F)(F)P(=O)(O)O)ccc5s4)C(=O)N32)C1` (stereo partly drawn) [Compound 30, ((2-(((3S,6S,10aR)-3-(3-(3-(2-(2-(2-((2-(2,6-dioxopiperidin-3-yl)-1,3-dioxoisoindolin-4-yl)oxy)acetamido)ethoxy)ethoxy)propanamido)-3-(pyridin-2-yl)azetidine-1-carbonyl)-5-oxodecahydropyrrolo[1,2-a]azocin-6-yl)carbamoyl)benzo[b]thiophen-5-yl)difluoromethyl)phosphonic acid], the IC50 is under 0.1 µM in assay [1], over 3 µM in assay [2] (setting [5]) and 3 to 30 µM in assay [3].

As for `Cc1ncsc1-c1ccc([C@H](C)NC(=O)[C@@H]2C[C@@H](O)CN2C(=O)[C@@H](NC(=O)COCCOCC(=O)NC2(c3ccccn3)CN(C(=O)[C@@H]3CC[C@H]4CCCC[C@H](NC(=O)c5cc6cc(C(F)(F)P(=O)(O)O)ccc6s5)C(=O)N43)C2)C(C)(C)C)cc1` [Compound 31, (difluoro(2-(((3S,6S,10aR)-3-(3-(2-(2-(2-(((S)-1-((2S,4R)-4-hydroxy-2-(((S)-1-(4-(4-methylthiazol-5-yl)phenyl)ethyl)carbamoyl)pyrrolidin-1-yl)-3,3-dimethyl-1-oxobutan-2-yl)amino)-2-oxoethoxy)ethoxy)acetamido)-3-(pyridin-2-yl)azetidine-1-carbonyl)-5-oxodecahydropyrrolo[1,2-a]azocin-6-yl)carbamoyl)benzo[b]thiophen-5-yl)methyl)phosphonic acid], the IC50 in assay [1] is under 0.1 µM; in assay [2] (setting [5]), over 3 µM; in assay [3] it was 3 to 30 µM.
